# System: str. radiatum CA1 region of rat hippocampal slices (LTP)
# Experiment: LTP test (40 Hz theta burst tetanization) in submerged hippocampal slices, field EPSP recording in multi-chamber device
# Type: cell-based
# Details: 40 Hz×4×10 theta burst, p<0.01, 4 rats, 12 slices
# Method: A twelve-chamber assembly of chambers according to the embodiment of the invention described in Example 1 is prepared for measurement of twelve slices simultaneously. Each chamber is prepared such that the top ends of the electrodes are placed 50 μm below the bottom net. Bipolar stimulation is utilized and the distance between electrodes is set to 100 μm. Such an assembly with fixed electrodes may be utilized for numerous experiments without readjustment of the electrodes. Individual chambers in the assembly may be replaced as necessary with new chambers. Electrophysiology experiments are performed on a 6-month old male rat. 400 μm hippocampal slices from the rat are prepared using a VIBROTOMETM (vibroslicer WPI; World Precision Instruments) to assure precise thickness. Slices were incubated for 2 hours at room temperature in a perfusion solution containing, in mM, 119 NaCl, 2.5 KCl, 2.5 CaCl2, 1.3 MgSO4, 1.25 NaH2PO4, 26.0 NaHCO3, 10 glucose and equilibrated with 95% O2 and 5% CO2 (pH 7.3-7.4) at room temperature. […] Simultaneous recording from the twelve slices is measured using electrophysiological software, […] […] 30 seconds after the single tetanus, baseline is continued to be collected as before and LTP was measured 60 minutes after tetanization. […] LOGEC 50 values are determined using Prizm4 software (Graphpad).
structure (smiles),measurement,setting,value
COc1ccc(C2CNC(=O)C2)cc1OC1CCCC1 (centres unmarked) [rolipram],% of facilitation of the LTP 60 minutes after tetanic stimulation,rolipram 1 μM in perfusion fluid,significant
same,% of facilitation of the LTP 60 minutes after tetanic stimulation,rolipram 10 μM in perfusion fluid,significant
